The values that follow are results of earlier work, collected in US4978531A, “Clebopride transdermal patch” (Fordonal, S.A., priority 1987, dated 1990).

For the data set the following is noted: in vivo.

As to `COc1cc(N)c(Cl)cc1C(=O)NC1CCN(Cc2ccccc2)CC1` [clebopride], the biological half-life result was “about 1.5 hours”.
